# Where two headings read alike, the source gives them in different places.
# What was measured:
# cyclooxygenase = assay: inhibition of eicosanoid synthesis by guinea pig peritoneal neutrophils: cyclooxygenase product (TX B2 and 5-HHT) synthesis; assay type: cell-based; conditions: [^14 C]-arachidonic acid and calcium ionophore
# Method: (§1) The compounds were tested for their activity as inhibitors of the synthesis of eicosanoids by guinea pig peritoneal neutrophils following the addition of [^14 C]-arachidonic acid and calcium ionophore, using a modification of the method published by Harvey et al [J. Pharmacol. Methods, Vol. 9(2), p 147-155 (1983)].
# 5-lipoxygenase = target: T1, 5-lipoxygenase (Cavia porcellus, UniProt A0A286X958); assay: inhibition of eicosanoid synthesis by guinea pig peritoneal neutrophils: 5-lipoxygenase product (5-HETE) synthesis; assay type: cell-based; conditions: [^14 C]-arachidonic acid and calcium ionophore
# T1 construct: synthesis of eicosanoids by guinea pig peritoneal neutrophils; endogenous in cells; host or cells: guinea pig peritoneal neutrophils
# T1 sequence (A0A286X958 1-674): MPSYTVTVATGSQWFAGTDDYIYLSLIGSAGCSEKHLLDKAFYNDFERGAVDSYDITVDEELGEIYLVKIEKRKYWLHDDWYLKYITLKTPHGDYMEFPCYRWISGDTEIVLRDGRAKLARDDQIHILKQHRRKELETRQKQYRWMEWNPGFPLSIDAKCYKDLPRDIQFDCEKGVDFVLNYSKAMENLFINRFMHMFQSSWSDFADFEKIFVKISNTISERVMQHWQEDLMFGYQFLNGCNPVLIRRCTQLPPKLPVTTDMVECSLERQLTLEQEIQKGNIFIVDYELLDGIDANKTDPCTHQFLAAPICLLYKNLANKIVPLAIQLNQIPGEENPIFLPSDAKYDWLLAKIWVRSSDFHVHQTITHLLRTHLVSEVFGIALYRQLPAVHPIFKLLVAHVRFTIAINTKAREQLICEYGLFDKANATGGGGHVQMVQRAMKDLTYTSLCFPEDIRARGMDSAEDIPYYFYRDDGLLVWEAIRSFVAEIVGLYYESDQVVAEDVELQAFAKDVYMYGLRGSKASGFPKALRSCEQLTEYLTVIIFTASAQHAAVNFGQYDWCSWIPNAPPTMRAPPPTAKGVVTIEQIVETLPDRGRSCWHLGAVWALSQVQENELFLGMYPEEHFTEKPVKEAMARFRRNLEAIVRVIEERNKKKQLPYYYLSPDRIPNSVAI
# Method: as §1
structure (smiles),measurement,setting,value
"CCSC12ON=C(c3ccc(OC)cc3)N1C(C)(C)C2(C)C (stereo not drawn) [compound 4, 3-(p-methoxyphenyl)-5,5,6,6-tetramethyl-7-ethylthio-1-oxa-2,4-diazabicyclo[3.2.0]hept-2-ene]",IC50,"cyclooxygenase; 5-HHT synthesis, read-out: IC50 (5-HHT)",6.3 µM
same,IC50,"cyclooxygenase; TXB2 synthesis, read-out: IC50 (TXB2)",5 µM
same,IC50,5-lipoxygenase,> 100 µM
